Measured values reported in PMC8229181, “Chemical Characterization and Anti-Inflammatory Activity of Phytoconstituents from Swertia alata” (Plants, 2021).

Experiments:
[1] = tested on: carrageenan induced rat paw edema; assay: Carrageenan-induced rat paw edema method; format: in vivo, Wistar albino rat; settings: for Increase in Paw Edema (Mean ± SEM): 3 h after inducing edema, rat
Excerpt: Carageenan was used to induced paw Edema in Wistar albino rat. Carrageenan induced paw edema is a standard assay for acute inflammation that is effectively employed to evaluate the phytoisolate against anti-inflammatory activity. Edema is produced by a sequential release of inflammatory mediators such as histamine, serotonin, kinnins, prostaglandins and bradykinins, which leads to fluid accumulation. Edema is characteristic of an acute inflammatory response. The release of histamine or serotonin occurs in the first phase (up to 1 h) and the second phase (over 1 h) is associated with the production of bradykinins. It is well known that the third phase of the edema induced by carrageenan, in which the edema reaches its highest volume, is characterized by the presence of prostaglandins and other compounds of slow reaction. Previous studies have shown that phytocompounds of S. alata play an important pharmacological role in inflammation. […] Moreover, several studies support that S. alata species have shown antioxidative effects. Inhibition of COX by S. alata leads to a decrease in all prostaglandin and thromboxane synthesis, which accounts for the beneficial anti-inflammatory and prevents ulcerogenic effects. […] Based on the antioxidant effect, SA4 may involve the inhibition of cyclooxygenase/prostaglandin-endoperoxide synthase (PGHS-1 and PGHS-2), and regulatory enzymes, involved in the biosynthesis of prostaglandin (PG) which is strongly implicated in inflammation.
The anti-inflammatory activity of isolated compound was evaluated on Wistar albino rat using carrageenan induced rat paw edema method as per the procedure described in earlier research. The animals were divided into groups, consisting of five rats in each group. The prepared compounds were administered orally at doses of 2, 4, 8 mg/kg body weight (oral gavage) and the volume of paw was determined plethysmographically (Ugo-Basile, Gemonio (VA), Italy). […] Carrageenan (0.1 mL, 1.0% w/v in 0.9% of normal saline) was injected after half an hour into the sub-plantar tissue of the rat’s hind paw. The paw volume was measured at hourly intervals for 3 h (0, 1, 2, and 3 h) and the percent inhibition of edema was calculated using the following formula:% inhibition = (1 − Vs/Vc × 100),(1) where, Vs = paw volume in sample treated group, Vc = paw volume in control group.

human recombinant COX-2 = human recombinant COX-2 (Homo sapiens, UniProt P35354); assay: In vitro COX-2 inhibitory assay (enzyme immunoassay kit); format: biochemical; settings: human recombinant COX-2, enzyme immunoassay kit
Chain of human recombinant COX-2 (P35354 18-604): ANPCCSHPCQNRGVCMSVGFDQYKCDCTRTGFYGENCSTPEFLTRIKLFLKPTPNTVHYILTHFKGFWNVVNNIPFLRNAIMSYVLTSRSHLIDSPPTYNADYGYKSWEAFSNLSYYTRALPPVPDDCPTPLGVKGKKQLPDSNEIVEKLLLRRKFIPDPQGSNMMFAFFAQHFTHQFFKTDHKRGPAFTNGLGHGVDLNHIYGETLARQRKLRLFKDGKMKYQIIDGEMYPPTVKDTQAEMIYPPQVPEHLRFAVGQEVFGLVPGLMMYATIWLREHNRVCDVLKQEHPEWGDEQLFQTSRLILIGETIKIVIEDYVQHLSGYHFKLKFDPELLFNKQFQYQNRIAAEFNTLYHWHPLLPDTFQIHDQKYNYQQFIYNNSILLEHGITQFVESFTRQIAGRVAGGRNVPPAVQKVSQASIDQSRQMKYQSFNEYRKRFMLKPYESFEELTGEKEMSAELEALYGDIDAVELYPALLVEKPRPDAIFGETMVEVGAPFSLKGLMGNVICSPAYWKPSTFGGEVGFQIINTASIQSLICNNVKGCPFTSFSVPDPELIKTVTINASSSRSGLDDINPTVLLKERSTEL
Procedure: (§1) The enzymatic assay was performed as per the manufacturer’s assay instructions and standard literature [48]. COX-1 and COX-2 enzymatic activity provides a simple, sensitive, and high-throughput adaptable method to detect the peroxidase activity of COX in biological samples or purified/crude enzyme preparations. The kit includes COX-1 and COX-2 specific inhibitors to differentiate the activity of COX-1 and COX-2 as well as other peroxidases, which may be present in the sample [49].

ovine COX-1 = target: T1, ovine COX-1 (Ovis aries, UniProt P05979); assay: In vitro COX-1 inhibitory assay (enzyme immunoassay kit); format: biochemical; settings: ovine COX-1, enzyme immunoassay kit
T1 construct: purchased Cayman Chemicals Inc., Ann Arbor, MI, USA 560131
T1 sequence (P05979 25-600): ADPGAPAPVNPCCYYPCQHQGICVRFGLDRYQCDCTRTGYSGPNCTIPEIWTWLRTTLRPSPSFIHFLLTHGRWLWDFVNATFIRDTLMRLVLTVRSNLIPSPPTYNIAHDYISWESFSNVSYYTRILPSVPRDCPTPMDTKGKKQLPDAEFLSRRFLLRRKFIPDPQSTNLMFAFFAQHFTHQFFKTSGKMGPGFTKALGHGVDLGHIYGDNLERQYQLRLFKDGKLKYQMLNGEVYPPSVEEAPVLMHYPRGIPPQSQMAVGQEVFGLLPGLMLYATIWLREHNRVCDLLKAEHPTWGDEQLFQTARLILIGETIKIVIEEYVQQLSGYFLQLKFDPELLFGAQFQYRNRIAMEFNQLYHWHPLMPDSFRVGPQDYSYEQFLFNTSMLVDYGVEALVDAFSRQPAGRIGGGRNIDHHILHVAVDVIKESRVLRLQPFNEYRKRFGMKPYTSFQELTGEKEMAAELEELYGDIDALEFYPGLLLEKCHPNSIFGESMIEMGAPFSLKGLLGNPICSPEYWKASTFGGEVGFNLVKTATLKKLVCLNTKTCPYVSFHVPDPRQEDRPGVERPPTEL
Procedure: as §1

Compound	Increase in Paw Edema (Mean ± SEM) ([1]; reference drug, oral (8 mg/kg; 21 mg/kg elsewhere in the source))	Increase in Paw Edema (Mean ± SEM) ([1]; 2 mg/kg oral)	Increase in Paw Edema (Mean ± SEM) ([1]; 4 mg/kg oral)	Increase in Paw Edema (Mean ± SEM) ([1]; 8 mg/kg oral)	IC50 (human recombinant COX-2)	IC50 (ovine COX-1)	development of edema at the third hour after treatment ([1]; 8 mg/kg, third hour, p < 0.05)
COc1ccc2c(c1)c(CC(=O)O)c(C)n2C(=O)c1ccc(Cl)cc1 [Indomethacin, reference compound]	0.15 ± 0.02 mL						
CC1(C)CC[C@]2(C(=O)O)CC[C@]3(C)C(=CC[C@@H]4[C@@]5(C)CC[C@H](O)C(C)(C)[C@@H]5CC[C@]43C)[C@@H]2C1 [SA-1, oleanolic acid]		0.29 ± 0.00 mL	0.27 ± 0.22 mL	0.23 ± 0.01 mL			
CC(C)C1CCC2(C(=O)O)CCC3(C)C(=CCC4C5(C)CCC(O)C(C)(C)C5CCC43C)C12 (stereo not shown) [SA-4, 3-hydroxylup-12-(13)-ene-17-carboxylic acid]		0.28 ± 0.00 mL	0.26 ± 0.22 mL	0.17 ± 0.01 mL	61.7 µM	104 µM	significantly inhibited
